Data taken from the supplement of paper PMC12350171.

Experiments:
[1] = system: Bacteroides fragilis NT; assay: IC25 growth inhibition; higher = less potent
Outline: (§1)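 Under anaerobic conditions, OD578 was read hourly in a plate reader for at least three biological replicates of monocultures grown overnight in mGAM. Each culture started at an OD578 of 0.01 in pre-reduced plates holding twofold drug dilutions and 1% DMSO (or water). IC25 was reported as a tested interval: the lowest concentration where the monotonic median area under the growth curve dropped below the cutoff. That cutoff was 0.75.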

[2] = system: Bacteroides thetaiotaomicron; assay: IC25 growth inhibition; higher = less potent
Outline: as §1

[3] = system: Bacteroides uniformis; assay: IC25 growth inhibition; higher = less potent
Outline: as §1

[4] = system: Bacteroides vulgatus; assay: IC25 growth inhibition; higher = less potent
Outline: as §1

[5] = system: Clostridium bolteae; assay: IC25 growth inhibition; higher = less potent
Outline: as §1

[6] = system: Clostridium perfringens; assay: IC25 growth inhibition; higher = less potent
Outline: as §1

[7] = system: Clostridium ramosum; assay: IC25 growth inhibition; higher = less potent
Outline: as §1

[8] = system: Clostridium saccharolyticum; assay: IC25 growth inhibition; higher = less potent
Outline: as §1

[9] = system: Collinsella aerofaciens; assay: IC25 growth inhibition; higher = less potent
Outline: as §1

[10] = system: Coprococcus comes; assay: IC25 growth inhibition; higher = less potent
Outline: as §1

[11] = system: Dorea formicigenerans; assay: IC25 growth inhibition; higher = less potent
Outline: as §1

[12] = system: Escherichia coli ED1a; assay: IC25 growth inhibition; higher = less potent
Outline: as §1

[13] = system: Eubacterium rectale; assay: IC25 growth inhibition; higher = less potent
Outline: as §1

[14] = system: Fusobacterium nucleatum subsp. Nucleatum; assay: IC25 growth inhibition; higher = less potent
Outline: as §1

[15] = system: Parabacteroides merdae; assay: IC25 growth inhibition; higher = less potent
Outline: as §1

[16] = system: Roseburia intestinalis; assay: IC25 growth inhibition; higher = less potent
Outline: as §1

[17] = system: Ruminococcus gnavus; assay: IC25 growth inhibition; higher = less potent
Outline: as §1

[18] = system: Salmonella enterica typhimurium; assay: IC25 growth inhibition; higher = less potent
Outline: as §1

[19] = system: Shigella flexneri; assay: IC25 growth inhibition; higher = less potent
Outline: as §1

[20] = system: Streptococcus parasanguinis; assay: IC25 growth inhibition; higher = less potent
Outline: as §1

[21] = system: Streptococcus salivarius; assay: IC25 growth inhibition; higher = less potent
Outline: as §1

[22] = system: Vibrio cholerae; assay: IC25 growth inhibition; higher = less potent
Outline: as §1

[23] = system: Yersinia enterocolitica WA-314; assay: IC25 growth inhibition; higher = less potent
Outline: as §1

[24] = system: Yersinia pseudotuberculosis; assay: IC25 growth inhibition; higher = less potent
Outline: as §1

[25] = system: Com21 synthetic gut community; assay: community biomass OD578 after 24 h drug treatment relative to untreated (fraction of untreated control); higher = more community growth; conditions: community: Com21 (Com20 + E. coli ED1a)
Protocol: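 Com21 (Com20 plus E. coli ED1a) was treated with drug for 24 h under anaerobic conditions in mGAM. Community OD578 was then measured and normalised to untreated Com21; mean of 3 biological replicates.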

[26] = drug pretreatment concentration 10 µM
[27] = drug pretreatment concentration 20 µM
[28] = drug pretreatment concentration 40 µM
[29] = drug pretreatment concentration 80 µM
[30] = drug pretreatment concentration 160 µM
[31] = drug pretreatment concentration 5 µM
[32] = drug pretreatment concentration 2.5 µM
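For IC25 growth inhibition in this document: lowest concentration where monotonic median growth AUC falls below 0.75 of drug-free control.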

Row | Compound | IC25 growth inhibition [1] | IC25 growth inhibition [2] | IC25 growth inhibition [3] | IC25 growth inhibition [4] | IC25 growth inhibition [5] | IC25 growth inhibition [6] | IC25 growth inhibition [7] | IC25 growth inhibition [8] | IC25 growth inhibition [9] | IC25 growth inhibition [10] | IC25 growth inhibition [11] | IC25 growth inhibition [12] | IC25 growth inhibition [13] | IC25 growth inhibition [14] | IC25 growth inhibition [15] | IC25 growth inhibition [16] | IC25 growth inhibition [17] | IC25 growth inhibition [18] | IC25 growth inhibition [19] | IC25 growth inhibition [20] | IC25 growth inhibition [21] | IC25 growth inhibition [22] | IC25 growth inhibition [23] | IC25 growth inhibition [24] | community biomass OD578 [25, 26] | community biomass OD578 [25, 27] | community biomass OD578 [25, 28] | community biomass OD578 [25, 29] | community biomass OD578 [25, 30] | community biomass OD578 [25, 31] | community biomass OD578 [25, 32]
1 | CC[C@H]1OC(=O)[C@H](C)[C@@H](O[C@H]2C[C@@](C)(OC)[C@@H](O)[C@H](C)O2)[C@H](C)[C@@H](O[C@@H]2O[C@H](C)C[C@H](N(C)C)[C@H]2O)[C@](C)(O)C[C@@H](C)C(=O)[C@H](C)[C@@H](O)[C@]1(C)O [Erythromycin] | < 1.25 µM | < 1.25 µM | < 1.25 µM | < 1.25 µM | ≤ 2.5 µM | < 1.25 µM | < 1.25 µM | < 1.25 µM | < 1.25 µM | < 1.25 µM | < 1.25 µM | ≤ 20 µM | < 1.25 µM | ≤ 5 µM | < 1.25 µM | < 1.25 µM | < 1.25 µM | ≤ 40 µM | ≤ 10 µM | < 1.25 µM | < 1.25 µM | < 1.25 µM | ≤ 20 µM | ≤ 40 µM | 0.734 | 0.696 | 0.608 | 0.496 | 0.409 | – | –
2 | C#C[C@]1(O)CC[C@H]2[C@@H]3CCc4cc(O)ccc4[C@H]3CC[C@@]21C [Ethinylestradiol] | > 80 µM | > 80 µM | > 80 µM | > 80 µM | > 80 µM | > 80 µM | > 80 µM | > 80 µM | > 80 µM | > 80 µM | > 80 µM | > 80 µM | > 80 µM | > 80 µM | > 80 µM | > 80 µM | > 80 µM | > 80 µM | > 80 µM | > 80 µM | > 80 µM | ≤ 40 µM | > 80 µM | > 80 µM | 0.986 | 0.99 | 0.976 | 0.779 | – | 1.01 | –
3 | CCN(CC)C(C)CN1c2ccccc2Sc2ccccc21 (configuration not stated) [Ethopropazine] | ≤ 10 µM | ≤ 2.5 µM | ≤ 10 µM | < 1.25 µM | > 80 µM | > 80 µM | > 80 µM | > 80 µM | > 80 µM | > 80 µM | > 80 µM | > 160 µM | > 80 µM | > 80 µM | < 1.25 µM | ≤ 80 µM | > 80 µM | > 80 µM | > 80 µM | > 80 µM | > 80 µM | > 80 µM | > 80 µM | > 80 µM | 0.981 | 0.995 | 0.997 | 0.992 | 0.97 | – | –
4 | O=c1[nH]c(=O)n([C@H]2C[C@H](O)[C@@H](CO)O2)cc1F [Floxuridine] | < 1.25 µM | < 1.25 µM | < 1.25 µM | < 1.25 µM | ≤ 80 µM | < 1.25 µM | < 1.25 µM | ≤ 160 µM | > 160 µM | > 160 µM | > 160 µM | ≤ 10 µM | > 160 µM | ≤ 80 µM | > 160 µM | > 160 µM | ≤ 2.5 µM | ≤ 40 µM | ≤ 20 µM | < 1.25 µM | < 1.25 µM | ≤ 10 µM | ≤ 20 µM | ≤ 5 µM | 0.993 | 0.907 | 0.886 | 0.882 | 0.88 | – | –
5 | OC(Cn1cncn1)(Cn1cncn1)c1ccc(F)cc1F [Fluconazole] | > 160 µM | > 160 µM | > 160 µM | > 160 µM | > 160 µM | > 160 µM | > 160 µM | > 160 µM | ≤ 160 µM | > 160 µM | > 160 µM | > 160 µM | ≤ 40 µM | > 160 µM | > 160 µM | > 160 µM | > 160 µM | > 160 µM | > 160 µM | > 160 µM | > 160 µM | > 160 µM | > 160 µM | > 160 µM | 0.936 | 1.02 | 0.993 | 0.99 | 1.04 | – | –
6 | CC(=O)N1CCN(c2ccc(OCC3COC(Cn4ccnc4)(c4ccc(Cl)cc4Cl)O3)cc2)CC1 (configuration not stated) [Ketoconazole] | ≤ 80 µM | ≤ 80 µM | ≤ 40 µM | ≤ 40 µM | > 160 µM | ≤ 80 µM | > 160 µM | ≤ 80 µM | ≤ 80 µM | ≤ 40 µM | ≤ 40 µM | > 160 µM | ≤ 40 µM | ≤ 160 µM | ≤ 40 µM | ≤ 80 µM | ≤ 80 µM | > 160 µM | > 80 µM | > 80 µM | ≤ 80 µM | > 160 µM | > 80 µM | > 160 µM | 0.941 | 0.979 | 0.953 | 0.928 | 0.731 | – | –
7 | N[C@@H](Cc1cc(I)c(Oc2cc(I)c(O)c(I)c2)c(I)c1)C(=O)O [L-Thyroxin] | > 160 µM | > 160 µM | > 160 µM | > 160 µM | > 160 µM | > 160 µM | > 160 µM | > 160 µM | > 160 µM | > 160 µM | ≤ 80 µM | > 40 µM | > 160 µM | > 160 µM | > 160 µM | > 160 µM | > 160 µM | > 160 µM | > 160 µM | > 160 µM | > 160 µM | > 160 µM | > 160 µM | > 160 µM | 1.01 | 1.03 | 1.02 | – | – | 0.999 | 0.996
8 | CCOC(=O)C1=C(C)NC(C)=C(C(=O)OCC)C1c1ccccc1/C=C/C(=O)OC(C)(C)C [Lacidipine] | > 40 µM | > 20 µM | > 40 µM | > 40 µM | > 20 µM | ≤ 40 µM | > 40 µM | > 20 µM | > 20 µM | > 20 µM | > 40 µM | > 40 µM | > 40 µM | > 40 µM | > 40 µM | ≤ 20 µM | > 40 µM | > 20 µM | > 40 µM | > 20 µM | > 40 µM | > 40 µM | > 20 µM | > 20 µM | 1.04 | 1 | 0.963 | – | – | 1.01 | 1.01
